These results are taken from paper PMC11650766 (ACS Infectious Diseases, 2024).

What all share (experiment): iSPP stabilization in E. coli K12 lysate at […], LC-MS/MS
Format in all cases: cell-based

For assay [1], the target named is RpoB (RNA polymerase β-subunit) (Escherichia coli, UniProt P0A8V2).
The next assay has as its target PBP4 (DacB) (Escherichia coli, UniProt P24228).
A further assay concerns the target T1, PBP1a (MrcA) (Escherichia coli, UniProt P02918).
T1 sequence (P02918 1-850): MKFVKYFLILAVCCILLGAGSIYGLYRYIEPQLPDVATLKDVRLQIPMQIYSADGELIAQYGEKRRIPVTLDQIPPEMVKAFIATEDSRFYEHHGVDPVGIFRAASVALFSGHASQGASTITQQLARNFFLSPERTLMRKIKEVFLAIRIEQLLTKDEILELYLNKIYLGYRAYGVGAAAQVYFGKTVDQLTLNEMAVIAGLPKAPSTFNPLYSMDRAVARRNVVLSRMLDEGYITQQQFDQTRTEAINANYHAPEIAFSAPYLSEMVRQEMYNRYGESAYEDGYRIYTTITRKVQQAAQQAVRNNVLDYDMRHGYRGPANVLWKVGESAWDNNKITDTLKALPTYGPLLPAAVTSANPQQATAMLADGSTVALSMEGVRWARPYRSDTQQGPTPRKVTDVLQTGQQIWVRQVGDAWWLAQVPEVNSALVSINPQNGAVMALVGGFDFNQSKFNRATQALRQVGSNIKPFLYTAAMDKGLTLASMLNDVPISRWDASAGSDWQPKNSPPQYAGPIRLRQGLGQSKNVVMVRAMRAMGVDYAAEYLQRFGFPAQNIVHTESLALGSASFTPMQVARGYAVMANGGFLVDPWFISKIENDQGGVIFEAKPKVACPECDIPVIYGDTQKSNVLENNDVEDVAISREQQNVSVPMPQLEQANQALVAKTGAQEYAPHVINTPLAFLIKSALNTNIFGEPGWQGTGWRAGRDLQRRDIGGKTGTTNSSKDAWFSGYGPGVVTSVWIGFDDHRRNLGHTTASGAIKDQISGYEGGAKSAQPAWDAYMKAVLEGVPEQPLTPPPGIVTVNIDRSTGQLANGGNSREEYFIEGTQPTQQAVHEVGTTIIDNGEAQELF

Structures are written as SMILES.

Sequence of RpoB (RNA polymerase β-subunit) (P0A8V2 whole entry): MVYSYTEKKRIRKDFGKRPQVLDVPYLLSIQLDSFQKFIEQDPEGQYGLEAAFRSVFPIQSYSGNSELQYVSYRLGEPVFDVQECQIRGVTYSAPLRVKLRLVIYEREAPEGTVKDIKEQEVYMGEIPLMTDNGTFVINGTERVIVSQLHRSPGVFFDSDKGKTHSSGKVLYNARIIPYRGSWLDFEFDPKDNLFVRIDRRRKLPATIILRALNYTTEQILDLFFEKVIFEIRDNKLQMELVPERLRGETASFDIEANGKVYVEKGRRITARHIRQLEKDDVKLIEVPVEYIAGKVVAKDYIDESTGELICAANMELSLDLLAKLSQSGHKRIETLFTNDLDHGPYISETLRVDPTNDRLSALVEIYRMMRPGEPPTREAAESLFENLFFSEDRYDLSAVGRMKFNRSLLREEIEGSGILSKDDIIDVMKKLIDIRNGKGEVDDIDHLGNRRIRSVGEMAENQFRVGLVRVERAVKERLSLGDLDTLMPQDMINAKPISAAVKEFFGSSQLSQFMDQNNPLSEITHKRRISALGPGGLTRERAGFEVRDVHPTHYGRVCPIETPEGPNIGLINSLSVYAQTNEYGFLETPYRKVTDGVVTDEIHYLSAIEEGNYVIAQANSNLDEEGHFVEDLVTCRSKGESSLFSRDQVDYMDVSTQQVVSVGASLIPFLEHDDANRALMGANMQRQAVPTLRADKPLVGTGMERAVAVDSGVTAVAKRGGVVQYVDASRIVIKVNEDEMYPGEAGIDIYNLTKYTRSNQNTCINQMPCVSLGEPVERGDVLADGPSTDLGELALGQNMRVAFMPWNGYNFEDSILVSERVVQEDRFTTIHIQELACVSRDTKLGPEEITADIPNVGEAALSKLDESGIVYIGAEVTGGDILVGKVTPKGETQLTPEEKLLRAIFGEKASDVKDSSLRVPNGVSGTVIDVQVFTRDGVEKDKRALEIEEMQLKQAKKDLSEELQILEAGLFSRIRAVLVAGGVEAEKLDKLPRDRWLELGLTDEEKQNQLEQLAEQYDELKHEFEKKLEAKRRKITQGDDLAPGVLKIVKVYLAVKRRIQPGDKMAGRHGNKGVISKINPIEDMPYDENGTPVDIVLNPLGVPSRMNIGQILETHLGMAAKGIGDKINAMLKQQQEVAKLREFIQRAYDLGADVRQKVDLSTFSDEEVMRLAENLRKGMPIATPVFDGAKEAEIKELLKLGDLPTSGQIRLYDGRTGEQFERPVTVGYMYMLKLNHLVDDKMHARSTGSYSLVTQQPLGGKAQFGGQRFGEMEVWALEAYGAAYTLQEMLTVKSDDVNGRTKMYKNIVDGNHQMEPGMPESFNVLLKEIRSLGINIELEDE
Sequence of RpoB (RNA polymerase β-subunit) (P0A8T7 whole entry partner): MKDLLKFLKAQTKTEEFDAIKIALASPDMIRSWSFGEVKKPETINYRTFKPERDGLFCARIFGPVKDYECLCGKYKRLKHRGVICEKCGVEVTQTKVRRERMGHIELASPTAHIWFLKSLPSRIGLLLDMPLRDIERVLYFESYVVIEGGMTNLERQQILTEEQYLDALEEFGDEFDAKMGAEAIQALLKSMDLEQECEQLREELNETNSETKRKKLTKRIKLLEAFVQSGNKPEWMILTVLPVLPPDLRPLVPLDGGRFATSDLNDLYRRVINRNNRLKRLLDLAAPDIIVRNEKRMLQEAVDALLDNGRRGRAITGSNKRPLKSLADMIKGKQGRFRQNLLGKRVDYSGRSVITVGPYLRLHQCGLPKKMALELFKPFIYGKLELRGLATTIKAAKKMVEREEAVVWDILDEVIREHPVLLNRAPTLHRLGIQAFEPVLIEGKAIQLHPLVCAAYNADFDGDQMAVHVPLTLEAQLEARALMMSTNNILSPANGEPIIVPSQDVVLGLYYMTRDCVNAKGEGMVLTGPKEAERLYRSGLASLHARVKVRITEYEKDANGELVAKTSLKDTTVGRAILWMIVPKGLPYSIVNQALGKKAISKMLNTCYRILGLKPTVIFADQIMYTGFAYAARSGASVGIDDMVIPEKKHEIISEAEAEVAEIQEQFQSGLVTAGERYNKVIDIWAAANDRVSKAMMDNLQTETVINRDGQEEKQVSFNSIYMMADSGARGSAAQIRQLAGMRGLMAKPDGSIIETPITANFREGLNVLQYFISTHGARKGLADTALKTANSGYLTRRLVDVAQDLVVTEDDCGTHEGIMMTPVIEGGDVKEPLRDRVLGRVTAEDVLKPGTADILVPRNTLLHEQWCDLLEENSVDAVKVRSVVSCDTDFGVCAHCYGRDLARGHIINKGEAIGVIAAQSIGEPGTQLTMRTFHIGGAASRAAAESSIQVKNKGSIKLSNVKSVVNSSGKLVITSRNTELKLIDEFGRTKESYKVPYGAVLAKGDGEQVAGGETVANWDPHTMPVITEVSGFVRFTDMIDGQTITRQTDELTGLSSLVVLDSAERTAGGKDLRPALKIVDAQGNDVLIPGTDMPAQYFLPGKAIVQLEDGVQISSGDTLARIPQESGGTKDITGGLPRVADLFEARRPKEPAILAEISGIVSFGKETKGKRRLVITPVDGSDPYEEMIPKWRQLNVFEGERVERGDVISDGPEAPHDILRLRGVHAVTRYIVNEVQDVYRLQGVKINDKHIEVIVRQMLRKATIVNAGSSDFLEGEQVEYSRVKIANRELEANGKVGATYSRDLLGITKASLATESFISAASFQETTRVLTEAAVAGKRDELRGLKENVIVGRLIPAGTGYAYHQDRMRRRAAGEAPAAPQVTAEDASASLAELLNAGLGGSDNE
Sequence of RpoB (RNA polymerase β-subunit) (P0A7Z4 whole entry partner): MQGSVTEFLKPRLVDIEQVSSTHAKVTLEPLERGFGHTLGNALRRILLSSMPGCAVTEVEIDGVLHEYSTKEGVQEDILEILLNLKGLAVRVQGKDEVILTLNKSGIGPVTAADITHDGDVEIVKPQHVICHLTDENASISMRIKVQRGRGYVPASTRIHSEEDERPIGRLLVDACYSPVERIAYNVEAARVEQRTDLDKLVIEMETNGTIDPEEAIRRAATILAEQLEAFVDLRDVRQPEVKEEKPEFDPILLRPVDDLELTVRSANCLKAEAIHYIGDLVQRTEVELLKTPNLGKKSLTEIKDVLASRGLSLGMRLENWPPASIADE
Sequence of PBP4 (DacB) (P24228 21-477): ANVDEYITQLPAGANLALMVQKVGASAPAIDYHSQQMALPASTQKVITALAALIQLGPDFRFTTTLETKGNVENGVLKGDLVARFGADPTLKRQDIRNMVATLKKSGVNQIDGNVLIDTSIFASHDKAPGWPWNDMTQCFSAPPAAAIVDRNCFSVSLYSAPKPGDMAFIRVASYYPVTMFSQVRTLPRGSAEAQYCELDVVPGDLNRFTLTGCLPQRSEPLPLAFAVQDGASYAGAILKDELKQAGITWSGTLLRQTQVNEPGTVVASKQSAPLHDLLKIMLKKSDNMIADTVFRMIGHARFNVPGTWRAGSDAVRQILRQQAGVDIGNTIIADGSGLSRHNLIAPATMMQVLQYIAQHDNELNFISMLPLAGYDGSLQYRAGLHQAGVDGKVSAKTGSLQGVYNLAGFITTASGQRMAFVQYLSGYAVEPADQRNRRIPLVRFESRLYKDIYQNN

For `CO[C@H]1/C=C/O[C@@]2(C)Oc3c(C)c(O)c4c(O)c(c(/C=N/N5CCN(C)CC5)c(O)c4c3C2=O)NC(=O)/C(C)=C\C=C\[C@H](C)[C@H](O)[C@@H](C)[C@@H](O)[C@@H](C)[C@H](OC(C)=O)[C@@H]1C` [rifampicin], the “iSPP stabilization in E. coli K12 lysate at 10 μM, LC-MS/MS” value in assay [1] is “for rifampicin, we observed (Figure 2A) the stabilization of other subunits within the RNAP complex in addition to the primary target RpoB”.

With `CC1(C)S[C@@H]2[C@H](NC(=O)[C@H](N)c3ccccc3)C(=O)N2[C@H]1C(=O)O` [ampicillin], the “iSPP stabilization in E. coli K12 lysate at 10 μM, LC-MS/MS” value at PBP4 (DacB) is “Ampicillin led to a significant stabilization of PBP1a (MrcA) and PBP4 (DacB), the two top hits”; on PBP1a (MrcA), “Ampicillin led to a significant stabilization of PBP1a (MrcA) and PBP4 (DacB), the two top hits”.
